Activity calls are given as the source filed them. The rule behind the calls is not given here.
Experiments:
[1] = test system: Aspergillus niger; assay: Fungicidal activity against Aspergillus niger after 7 days by serial dilution technique; format: functional, organism-based
[2] = test system: Candida albicans; assay: Fungicidal activity against Candida albicans; format: functional, organism-based
[3] = test system: Escherichia coli; assay: Bactericidal activity against Escherichia coli; format: functional, organism-based
[4] = test system: Bacillus subtilis; assay: Bactericidal activity against Bacillus subtilis; format: functional, organism-based
[5] = test system: Staphylococcus aureus; assay: Bactericidal activity against Staphylococcus aureus; format: functional, organism-based
[6] = test system: Candida albicans; assay: Antifungal activity against Candida albicans after 2 days by serial dilution technique; format: functional
[7] = test system: Aspergillus niger; assay: Antifungal activity against Aspergillus niger after 7 days by serial dilution technique; format: functional
[8] = test system: Escherichia coli; assay: Antibacterial activity against Escherichia coli after 24 hr by serial dilution technique; format: functional
[9] = test system: Bacillus subtilis; assay: Antibacterial activity against Bacillus subtilis after 24 hr by serial dilution technique; format: functional
[10] = test system: Staphylococcus aureus; assay: Antibacterial activity against Staphylococcus aureus after 24 hr by serial dilution technique; format: functional

Cc1ccc(NC(=O)c2ccccc2N)cc1
Activity [1]: Active | Activity [2]: Active | Activity [3]: Active | Activity [4]: Active | Activity [5]: Active | -logMIC [6]: 1.26 | -logMIC [7]: 1.26 | -logMIC [8]: 1.56 | -logMIC [9]: 2.16 | -logMIC [10]: 1.26

CCN(CC)C(=O)c1ccccc1N
Activity [1]: Active | Activity [2]: Active | Activity [3]: Active | Activity [4]: Active | Activity [5]: Active | -logMIC [6]: 1.19 | -logMIC [7]: 1.49 | -logMIC [8]: 1.19 | -logMIC [9]: 2.09 | -logMIC [10]: 1.19

CCCCOC(=O)c1ccccc1N [BUTYL 2-AMINOBENZOATE]
Activity [1]: Active | Activity [2]: Active | Activity [3]: Active | Activity [4]: Active | Activity [5]: Active | -logMIC [6]: 1.19 | -logMIC [7]: 1.3 | -logMIC [8]: 1.79 | -logMIC [9]: 2.09 | -logMIC [10]: 1.2

OC(Cn1cncn1)(Cn1cncn1)c1ccc(F)cc1F [FLUCONAZOLE]
-logMIC [6]: 2.64 | -logMIC [7]: 2.64

CCCCN(CCCC)C(=O)c1ccccc1N
Activity [1]: Active | Activity [2]: Active | Activity [3]: Active | Activity [4]: Active | Activity [5]: Active | -logMIC [6]: 1.3 | -logMIC [7]: 1.6 | -logMIC [8]: 1.6 | -logMIC [9]: 2.2 | -logMIC [10]: 1.3

Nc1ccccc1C(=O)Nc1cccc(Cl)c1
Activity [1]: Active | Activity [2]: Active | Activity [3]: Active | Activity [4]: Active | Activity [5]: Active | -logMIC [6]: 1.3 | -logMIC [7]: 1.3 | -logMIC [8]: 1.6 | -logMIC [9]: 2.2 | -logMIC [10]: 1.3

CC(C)CCOC(=O)c1ccccc1N [ISOPENTYL 2-AMINOBENZOATE]
Activity [1]: Active | Activity [2]: Active | Activity [3]: Active | Activity [4]: Active | Activity [5]: Active | -logMIC [6]: 1.22 | -logMIC [7]: 1.22 | -logMIC [8]: 1.82 | -logMIC [9]: 2.12 | -logMIC [10]: 1.22

COc1ccccc1NC(=O)c1ccccc1N
Activity [1]: Active | Activity [2]: Active | Activity [3]: Active | Activity [4]: Active | Activity [5]: Active | -logMIC [6]: 1.29 | -logMIC [7]: 1.29 | -logMIC [8]: 1.2 | -logMIC [9]: 1.59 | -logMIC [10]: 1.29

Cc1ccc(NC(=O)c2ccccc2N)c(C)c1
Activity [1]: Active | Activity [2]: Active | Activity [3]: Active | Activity [4]: Active | Activity [5]: Active | -logMIC [6]: 1.28 | -logMIC [7]: 1.28 | -logMIC [8]: 1.28 | -logMIC [9]: 2.19 | -logMIC [10]: 1.28

CN(C)C(=O)c1ccccc1N
Activity [1]: Active | Activity [2]: Active | Activity [3]: Active | Activity [4]: Active | Activity [5]: Active | -logMIC [6]: 0.82 | -logMIC [7]: 1.42 | -logMIC [8]: 1.42 | -logMIC [9]: 2.02 | -logMIC [10]: 0.82

Nc1ccccc1C(=O)N(c1ccccc1)c1ccccc1
Activity [1]: Active | Activity [2]: Active | Activity [3]: Active | Activity [4]: Active | Activity [5]: Active | -logMIC [6]: 1.36 | -logMIC [7]: 1.66 | -logMIC [8]: 1.66 | -logMIC [9]: 2.27 | -logMIC [10]: 1.36

Nc1ccccc1C(=O)Nc1ccccc1F
Activity [1]: Active | Activity [2]: Active | Activity [3]: Active | Activity [4]: Active | Activity [5]: Active | -logMIC [6]: 1.27 | -logMIC [7]: 1.27 | -logMIC [8]: 1.27 | -logMIC [9]: 2.17 | -logMIC [10]: 1.27

CC(C)COC(=O)c1ccccc1N [ISOBUTYL 2-AMINOBENZOATE]
Activity [1]: Active | Activity [2]: Active | Activity [3]: Active | Activity [4]: Active | Activity [5]: Active | -logMIC [6]: 0.59 | -logMIC [7]: 1.06 | -logMIC [8]: 1.51 | -logMIC [9]: 1.79 | -logMIC [10]: 0.89

Nc1ccccc1C(=O)Nc1ccccc1
Activity [1]: Active | Activity [2]: Active | Activity [3]: Active | Activity [4]: Active | Activity [5]: Active | -logMIC [6]: 1.23 | -logMIC [7]: 1.23 | -logMIC [8]: 1.23 | -logMIC [9]: 2.13 | -logMIC [10]: 1.23

Cc1ccc(C)c(NC(=O)c2ccccc2N)c1
Activity [1]: Active | Activity [2]: Active | Activity [3]: Active | Activity [4]: Active | Activity [5]: Active | -logMIC [6]: 1.3 | -logMIC [7]: 1.28 | -logMIC [8]: 1.28 | -logMIC [9]: 2.19 | -logMIC [10]: 1.28

Nc1ccccc1C(=O)Oc1cccc2cccnc12
Activity [1]: Active | Activity [2]: Active | Activity [3]: Active | Activity [4]: Active | Activity [5]: Active | -logMIC [6]: 1.63 | -logMIC [7]: 1.63 | -logMIC [8]: 1.8 | -logMIC [9]: 1.93 | -logMIC [10]: 1.93

CCCCCCCOC(=O)c1ccccc1N [HEPTYL 2-AMINOBENZOATE]
Activity [1]: Active | Activity [2]: Active | Activity [3]: Active | Activity [4]: Active | Activity [5]: Active | -logMIC [6]: 1.58 | -logMIC [7]: 1.58 | -logMIC [8]: 1.88 | -logMIC [9]: 1.88 | -logMIC [10]: 1.27

COC(=O)c1ccccc1N [METHYL ANTHRANILATE]
Activity [1]: Active | Activity [2]: Active | Activity [3]: Active | Activity [4]: Active | Activity [5]: Active | -logMIC [6]: 1.08 | -logMIC [7]: 1.08 | -logMIC [8]: 1.69 | -logMIC [9]: 1.99 | -logMIC [10]: 1.08

Cc1cccc(NC(=O)c2ccccc2N)c1
Activity [1]: Active | Activity [2]: Active | Activity [3]: Active | Activity [4]: Active | Activity [5]: Active | -logMIC [6]: 1.26 | -logMIC [7]: 1.26 | -logMIC [8]: 1.26 | -logMIC [9]: 2.16 | -logMIC [10]: 1.26

COc1ccc(NC(=O)c2ccccc2N)cc1
Activity [1]: Active | Activity [2]: Active | Activity [3]: Active | Activity [4]: Active | Activity [5]: Active | -logMIC [6]: 1.29 | -logMIC [7]: 1.29 | -logMIC [8]: 1.29 | -logMIC [9]: 2.19 | -logMIC [10]: 1.29

Nc1ccccc1C(=O)Nc1ccc(F)c(Cl)c1
Activity [1]: Active | Activity [2]: Active | Activity [3]: Active | Activity [4]: Active | Activity [5]: Active | -logMIC [6]: 1.33 | -logMIC [7]: 1.02 | -logMIC [8]: 1.33 | -logMIC [9]: 2.23 | -logMIC [10]: 1.33

CCn1cc(C(=O)O)c(=O)c2cc(F)c(N3CCNCC3)cc21 [NORFLOXACIN]
-logMIC [8]: 3.33 | -logMIC [9]: 3.33 | -logMIC [10]: 3.33

Nc1ccccc1C(=O)Nc1ccc2ccccc2c1
Activity [1]: Active | Activity [2]: Active | Activity [3]: Active | Activity [4]: Active | Activity [5]: Active | -logMIC [6]: 1.32 | -logMIC [7]: 1.62 | -logMIC [8]: 1.62 | -logMIC [9]: 2.23 | -logMIC [10]: 1.32

NC(=O)c1ccccc1N [ANTHRANILAMIDE]
Activity [1]: Active | Activity [2]: Active | Activity [3]: Active | Activity [4]: Active | Activity [5]: Active | -logMIC [6]: 1.04 | -logMIC [7]: 1.64 | -logMIC [8]: 1.04 | -logMIC [9]: 1.94 | -logMIC [10]: 1.04

Cc1ccccc1NC(=O)c1ccccc1N
Activity [1]: Active | Activity [2]: Active | Activity [3]: Active | Activity [4]: Active | Activity [5]: Active | -logMIC [6]: 1.56 | -logMIC [7]: 1.56 | -logMIC [8]: 1.26 | -logMIC [9]: 1.86 | -logMIC [10]: 1.26

CCCNC(=O)c1ccccc1N
Activity [1]: Active | Activity [2]: Active | Activity [3]: Active | Activity [4]: Active | Activity [5]: Active | -logMIC [6]: 1.12 | -logMIC [7]: 1.15 | -logMIC [8]: 1.46 | -logMIC [9]: 2.06 | -logMIC [10]: 1.15

Nc1ccccc1C(=O)N1CCOCC1 [(2-AMINOPHENYL)(MORPHOLINO)METHANONE]
Activity [1]: Active | Activity [2]: Active | Activity [3]: Active | Activity [4]: Active | Activity [5]: Active | -logMIC [6]: 1.22 | -logMIC [7]: 1.22 | -logMIC [8]: 1.52 | -logMIC [9]: 1.22 | -logMIC [10]: 1.22

CCCCNC(=O)c1ccccc1N
Activity [1]: Active | Activity [2]: Active | Activity [3]: Active | Activity [4]: Active | Activity [5]: Active | -logMIC [6]: 1.19 | -logMIC [7]: 1.2 | -logMIC [8]: 1.19 | -logMIC [9]: 1.49 | -logMIC [10]: 1.2

CCCCCCOC(=O)c1ccccc1N [HEXYL 2-AMINOBENZOATE]
Activity [1]: Active | Activity [2]: Active | Activity [3]: Active | Activity [4]: Active | Activity [5]: Active | -logMIC [6]: 1.25 | -logMIC [7]: 1.85 | -logMIC [8]: 1.85 | -logMIC [9]: 2.15 | -logMIC [10]: 1.25

From ChEMBL document CHEMBL3046853, “Synthesis, antimicrobial evaluation, ot-QSAR and mt-QSAR studies of 2-amino benzoic acid derivatives” (2012)
